Read-outs that look alike come from different tables or passages of the source.
What was measured:
rats = experiment: Orientating toxicological investigations on rats; type: in vivo; details: up to an oral dosage of 1000 mg./kg.
[1] = test system: maximum electroshock spasm (MES) in male mice (NMRI); experiment: MES test (maximum electroshock spasm), inhibition of the extensor spasm; type: in vivo; details: for responders at 100 mg/kg / ED50 / responders at 50 mg/kg: Mus musculus; for responders at 100 mg/kg / responders at 50 mg/kg: read-out: protective action after 1 hr. (MES test); for ED50: read-out: ED 50 in the MES test
[2] = Neurotoxicity observation (motility, muscle tonus, respiratory frequency, body temperature, general behaviour); design: species or system mice (NMRI); details: mouse, in vivo, po
Method: During the above-described experiments, the animals were observed during the whole of the experimental period (up to 4 hours) for signs of substance-caused changes of behaviour and neurotoxicity (motility, muscle tonus, respiratory frequency, body temperature and general behaviour).

[3] = po, 100 mg/kg p.o., mice, 1 hr., % of animals protected 100% against the extensor spasm
[4] = oral, mice, 1 hour after administration
[5] = read-out: Neurotoxic limiting dose in the mouse

## COC1=CC(=O)O[C@H]1[C@H](O)c1ccccc1Cl (relative stereo) [Example 64, threo-5-(2-chlorophenylhydroxymethyl)-4-methoxy-2(5H)-furanone]
rats
  mortality of rats: no mortality of the animals
[1]; [3]
  responders at 100 mg/kg: 100%
[1]; [4]
  ED50: 19.8 mg/kg

## COC1=CC(=O)O[C@H]1[C@H](O)c1ccccc1 (relative stereo) [Example 65, threo-4-methoxy-5-phenylhydroxymethyl-2(5H)-furanone]
rats
  mortality of rats: no mortality of the animals
[1]; [3]
  responders at 100 mg/kg: 79%
[1]; [4]
  ED50: 69 mg/kg

## COC1=CC(=O)O[C@H]1[C@H](O)c1ccc(Cl)cc1Cl (relative stereo) [Example 79, threo-5-(2,4-dichlorophenylhydroxymethyl)-4-methoxy-2(5H)-furanone]
rats
  mortality of rats: no mortality of the animals
[1]; [3]
  responders at 100 mg/kg: 60%
[1]; [4]
  ED50: 82.5 mg/kg

## COC1=CC(=O)O[C@H]1[C@H](O)c1cc(Cl)ccc1Cl (relative stereo) [Example 81, threo-5-(2,5-dichlorophenylhydroxymethyl)-4-methoxy-2(5H)-furanone]
rats
  mortality of rats: no mortality of the animals
[1]; [3]
  responders at 100 mg/kg: 100%
[1]; [4]
  ED50: 19.5 mg/kg

## CCC1(C)CC(=O)NC1=O (stereo not shown) [Ethosuximide, reference compound]
[1]; [3]
  responders at 100 mg/kg: 0%
[1]; [4]
  ED50: > 250 mg/kg
[2]
  TD50: 500 mg/kg

## NC(=O)N1c2ccccc2C=Cc2ccccc21 [carbamazepine, reference compound]
[1]; po, 50 mg/kg p.o., mice, 1 hr.
  responders at 50 mg/kg: 100%
[1]; [4]
  ED50: 14.6 mg/kg
[2]
  TD50: 100 mg/kg

## O=C1NC(=O)C(c2ccccc2)(c2ccccc2)N1 [diphenylhydantoin, reference compound]
[1]; 1 h, (4 h), mice
  ED50: 9.1 mg/kg
[1]; po, 50 mg/kg p.o., mice, 1 hr.
  responders at 50 mg/kg: 100%
[2]
  TD50: 100 mg/kg

## CCCC(C)C1(CC)C(=O)NC(=O)NC1=O (stereo not shown) [pentobarbital, reference compound]
[1]; sc, 1 h
  ED50: 35.2 mg/kg
[2]; [5]
  TD50: 60 mg/kg

## CCC1(c2ccccc2)C(=O)NC(=O)NC1=O [phenobarbital, reference compound]
[1]; po, 1 h
  ED50: 19.2 mg/kg
  responders at 100 mg/kg: 100%
[2]; [5]
  TD50: 60 mg/kg

## CCCC(CCC)C(=O)O [valproic acid, reference compound]
[1]; ip, 1 h
  ED50: 205 mg/kg
[1]; po, 1 h
  responders at 100 mg/kg: 0%
[2]; [5]
  TD50: 350 mg/kg

## threo-4-methoxy-5-(α-hydroxy-β-phenylethyl)-2(5H)-furanone [Example 104]
[1]; 100 mg/kg p.o., mice, 1 hr., % of animals protected 100% against the extensor spasm
  protective action after 1 hr. (MES test): 37.5%

## threo-5-[1'-ethoxypropoxy-(2-chlorophenyl)-methyl]-4-methoxy-2-(5H)-furanone [Example 122]
[1]; 50 mg/kg p.o., mice, 1 hr.
  protective action after 1 hr. (MES test): 100%
